Results on ten molecules are retold here after patent EP0600950B1, “AMIDE TETRAZOLE ACAT INHIBITORS” (priority 1991, dated 1993).

By IC50 is commonly meant the concentration at which inhibition is half-maximal. A low value points to higher potency.

In one assay the test system is male Sprague-Dawley rats. Description: in vivo screen APCC, cholesterol-fed rats, blood cholesterol. The following applies: Table 2, dosed at 30 mg/kg unless otherwise noted, high fat, high cholesterol diet with 0.5% cholic acid overnight, blood cholesterol vs vehicle. From the text: In one in vivo screen designated APCC, male Sprague-Dawley rats (200 to 225 g) were randomly divided into treatment groups and dosed at 4 PM with either vehicle (CMC/Tween) or suspensions of compounds in vehicle. The normal chow diet was then replaced with a high fat, high cholesterol diet with 0.5% cholic acid. The rats consumed this diet ad libitum during the night and were sacrificed at 8 AM to obtain blood samples for cholesterol analysis using standard procedures. Statistical differences between mean cholesterol values for the same vehicle were determined using analysis of variance followed by Fisher's least significant test.
With “(±)-2-Dodecyl-β-phenyl-N-(2,4-6-trimethoxyphenyl)-2H-tetrazole-5-propanamide and (±)-1-dodecyl-β-phenyl-N-(2,4,6-trimethoxyphenyl)-^1H-tetrazole-5-acetamide [Example 45]”, the “APCC (% ΔTC)” value was -60%.

The target of the next assay is acyl-CoA: cholesterol acyltransferase (ACAT). Description: in vitro ACAT inhibition, rabbit intestinal microsomes (IAI). It counts as biochemical. The following applies: radiolabeled cholesterol oleate formed from radiolabeled oleic acid. From the text:
(§1) The test assesses the ability of a test compound to inhibit the acylation of cholesterol by oleic acid by measuring the amount of radiolabeled cholesterol oleate formed from radiolabeled oleic acid in a tissue preparation containing rabbit intestinal microsomes (designated IAI) or from rat liver microsomes (designated LAI).
Take “(±)-2-Dodecyl-β-phenyl-N-(2,4-6-trimethoxyphenyl)-2H-tetrazole-5-propanamide and (±)-1-dodecyl-β-phenyl-N-(2,4,6-trimethoxyphenyl)-^1H-tetrazole-5-acetamide [Example 45]”: 0.23 µM corresponded to half-maximal inhibition (IC50).

A further assay has the same target. Description: in vitro ACAT inhibition, rat liver microsomes (LAI). Type of assay: biochemical. To be noted: radiolabeled cholesterol oleate formed from radiolabeled oleic acid.
From the text: as §1
(In general: Liver microsomes are a subcellular fraction often used to study metabolism.)
For the molecule `CCCCCCCCCCCCSc1nnn(C(C(=O)Nc2c(OC)cc(OC)cc2OC)c2ccccc2)n1` (racemic) [Example 103, (±)-5-(dodecylthio)-α-phenyl-N-(2,4,6-trimethoxyphenyl)-2H-tetrazole-2-acetamide], the IC50 is 0.049 µM. Same read-out and setting: the value for `CCCCCCCCCCCCc1nnn(C(C)(C)C(=O)Nc2c(OC)cc(OC)cc2OC)n1` [Example 102, 5-dodecyl-α,α-dimethyl-N-(2,4,6-trimethoxyphenyl)-2H-tetrazole-2-acetamide] was 0.042 µM; that for `CCCCCCCCCCc1nnn(CC(=O)Nc2c(C(C)C)cccc2C(C)C)n1` [Example 88, N-[2,6-bis(1-methylethyl)phenyl]-5-decyl-2H-tetrazole-2-acetamide] was 0.01 µM. On the same count and under the same terms, the value for `CCCCCCCCCCc1nnnn1CC(=O)Nc1c(C(C)C)cccc1C(C)C` [Example 89, N-[2,6-bis(1-methylethyl)phenyl]-5-decyl-1H-tetrazole-1-acetamide] was 0.39 µM. The same measure, in the same setting: the value for `CCCCCCCCCCCCc1nnn(C(CCCCC)C(=O)Nc2c(C(C)C)cccc2C(C)C)n1` (racemic) [Example 93, (±)-N-[2,6-bis(1-methylethyl)phenyl]-5-dodecyl-α-pentyl-2H-tetrazole-2-acetamide] was 0.022 µM; that for `CCCCCCCCCCCCc1nnn(CC(=O)Nc2c(C(C)C)cccc2C(C)C)n1` [Example 91] was 0.006 µM; that for `CC(C)c1cccc(C(C)C)c1NC(=O)C(c1ccccc1)n1nnc(C(c2ccccc2)c2ccccc2)n1` (racemic) [Example 90, (±)-N-[2,6-bis(1-methylethyl)phenyl]-5-(diphenylmethyl)-α-phenyl-2H-tetrazole-2-acetamide] was 0.1 µM. Turning to `COc1cc(OC)c(NC(=O)C(c2ccccc2)n2nnc(C(c3ccccc3)c3ccccc3)n2)c(OC)c1` (racemic) [Example 96, (±)-5-(diphenylmethyl)-α-phenyl-N-(2,4,6-trimethoxyphenyl)-2H-tetrazole-2-acetamide], the IC50 amounted to 0.19 µM. Still for that read-out and setting: the value for `CCCCCCCCCCCCc1nnn(C(CCCCC)C(=O)Nc2c(OC)cc(OC)cc2OC)n1` (racemic) [Example 99, (±)-5-dodecyl-α-pentyl-N-(2,4,6-trimethoxyphenyl)-2H-tetrazole-2-acetamide] was 0.032 µM.
